Values joined by “and” are separate entries in the source; they are usually repeats but may differ in a detail not shown here. Equal values may be shown once. A value given as a limit tells only on which side of the number the result lay.

For assay [1], the target named is T1, thromboxane synthase (Guinea Pig Lung Microsomes) (Cavia porcellus, UniProt H0UT36).
T1 construct: The lungs were removed, freed of trachea and the majority of blood removed by rinsing the lungs with buffer; from tissue; host or cells: lungs of male guinea pigs (microsomes, 110,000 g pellet)
T1 sequence (H0UT36 entry or part of it): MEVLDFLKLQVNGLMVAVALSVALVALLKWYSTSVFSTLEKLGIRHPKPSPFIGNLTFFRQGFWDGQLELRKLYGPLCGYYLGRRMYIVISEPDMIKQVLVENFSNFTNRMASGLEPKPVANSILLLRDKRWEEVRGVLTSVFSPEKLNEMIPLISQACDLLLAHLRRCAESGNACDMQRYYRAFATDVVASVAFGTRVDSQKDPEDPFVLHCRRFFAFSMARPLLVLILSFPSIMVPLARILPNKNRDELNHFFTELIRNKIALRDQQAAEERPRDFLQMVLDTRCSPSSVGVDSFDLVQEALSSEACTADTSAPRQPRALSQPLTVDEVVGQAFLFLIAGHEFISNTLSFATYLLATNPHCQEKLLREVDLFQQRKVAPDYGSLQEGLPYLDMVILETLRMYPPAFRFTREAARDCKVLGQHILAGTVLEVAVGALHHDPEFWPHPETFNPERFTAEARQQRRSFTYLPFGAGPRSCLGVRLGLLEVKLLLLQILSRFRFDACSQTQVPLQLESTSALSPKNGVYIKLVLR
The assay can be described thus: biochemical. To be noted: enzyme source G = Guinea Pig Lung Microsomes; read-out: IC50. As for the experimental part: In said assay procedure, microsomes from guinea pig lung or human platelets are added to an endoperoxide intermediate in prostaglandin biosynthesis and the inhibitor in phosphate buffer solution followed by incubation, extraction and determination of the extent of thromboxane synthase inhibition by TLC with radiochromatographic profile analysis. […]
Isolation of Guinea Pig Lung Microsomes
Four male guinea pigs (.congruent.500 g each) were sacrificed by spinal dislocation. The lungs were removed, freed of trachea and the majority of blood removed by rinsing the lungs with buffer (0.1M phosphate pH 7.5) via the pulmonary artery. The lung tissue (18.3 g total wet wt.), was then minced, suspended in three volumes of buffer and homogenized using, initially, a Brinkmann polytron homogenizer and, finally, a glass-teflon tissue grinder. The homogenate was centrifuged at 12,000 g for 1 hr. and the resultant supernatant recentrifuged at 110,000 g for 1 hr. The 110,000 g pellet was taken up in 10 ml of buffer, divided into 5×2 ml aliquots and stored at -70° until use.
(§1) Low specific activity PGH2 (3.3 μCi/μmole) was obtained from Dr. W. E. M. Lands of the University of Michigan. PGH2 of higher specific activity (16.0 μCi/μmole) was purchased from Ran Biochemicals, Tel-Aviv, Israel.
(§2) The inhibitors tested were prepared as solutions (1-10 mg/ml) in 95% ethanol.
(§3) Assay for Thromboxane Synthase
(§4) To a 12×75 mm tube containing [1-^14 C] PGH2 (2 μg, 0.01 μCi or 0.05 μCi) and inhibitor (1 mM final assay concentration, in 10 μl of ethanol) in 225 μl of phosphate buffer (0.1M, pH 7.5), was added to an aliquot of guinea pig lung microsomes (25 μl, containing 400 μg protein) or an aliquot of human platelet microsomes (25 μl, containing .congruent.[…] protein). The solution was incubated in a 22° water bath for 2 min.; ether (1 ml) and citric acid (25 μMoles) were added, and the tube plunged into an acetone-dry ice bath. The ether extract was transferred to a 1.0 ml Reacti-vial, and the volume reduced under nitrogen to .congruent.50 μl.
(§5) The extract was applied to an I.T.L.C., type SG, glass fiber sheet (Gelman Instrument Co., Ann Arbor, Mich.) and developed in isooctane; methyl ethyl ketone: acetic acid (100:19:1 or 100:9:1) (19). The sheets were air dried and scanned using a Berthold LB 2760 Radiochromatographic Scanner. In certain cases, based on the radiochromatographic profile obtained, the sheets were cut, the appropriate regions placed in scintillation vials, 10 ml of LSC cocktail (Yorktown Research, S. Hackensack, NJ) added, and the relative cpm determined.

Assay [2] relates to isolated perfused rat pancreas. As to the kind of experiment: Insulin secretion by isolated perfused rat pancreas. To be noted: 16.7 mM glucose, control 1.0 ± 0.04 (n = 5). On the set-up: key: insulin AUC ratio: 1st glucose pulse / 2nd pulse with compound. On the procedure: Determination of Insulin-Secretory Activity in the Isolated Perfused Rat Pancreas
Pancreata were obtained from young adult female Charles River rats weighing from 200-300 g. The animals were anaesthesized with sodium pentobarbitol (45 mg/kg), injected intraperitoneally, and the pancreas with its intact vasculature was removed and connected to an extracorporeal perfusion apparatus.
The basic perfusion solution contained: 133 mM NaCl, 4.4 mM KCl, 2.5 mM MgSO4, 2.4 mM Ca gluconate, 1.5 mM KH2 PO4, 29.4 mM NaHCO3, 4% dextran and 0.2% bovine serum albumin and glucose as discussed below. The perfusion flow rate was kept constant at 4 ml/min. After a 15-20 min equilibration period, the experimental protocol was begun. The pancreatic effluent was collected in either one or four-minute fractions.
The perfusion was run in the following sequence:
30 min 16.7 mM glucose-internal control
30 min 16.7 mM glucose and test compound
5 min 20 mM arginine-to check pancreas viability
Test compounds were dissolved in 90% ethanol to a concentration of 25 mM and then diluted in the perfusion buffer to the desired concentration. The perfusion effluent was collected in one or four min fractions-the samples were checked immediately, aliquoted for submission to radioimmunoassay and stored at -20° C. until the time of assay. The radioimmunoassay of insulin was carried out by a back-titration method using a pure rat insulin standard.
To assess the inhibitory activity of the test compounds, an inhibition index was calculated. The inhibition index is derived by comparing the insulin secretion response from treated versus nontreated pancreas preparations. For each preparation, a ratio of insulin secretion was calculated from the area under the insulin secretion curve of the first pulse of 16.7 mM glucose divided by the area under the curve of the second pulse of 16.7 mM glucose containing compound.

Assay [3] has as its target TXA2 Synthase. As to the kind of experiment: TXA2 synthase IC50 as listed in Table I (enzyme source not stated). In kind it is biochemical. As for the experimental part:
(§6) Determination of Inhibition of Thromboxane Synthase Activity Isolation of Human Platelet Microsomes
as §3, §4, §5

For assay [4], the target named is T2, thromboxane synthase (Human Platelet Microsomes) (Homo sapiens, UniProt P24557).
T2 construct: Platelets were obtained from 320 ml of whole blood and resuspended in 5.0 ml of Krebs-Hensleit buffer; from tissue; host or cells: human platelets (microsomes, 110,000 g pellet)
T2 sequence (P24557 1-533): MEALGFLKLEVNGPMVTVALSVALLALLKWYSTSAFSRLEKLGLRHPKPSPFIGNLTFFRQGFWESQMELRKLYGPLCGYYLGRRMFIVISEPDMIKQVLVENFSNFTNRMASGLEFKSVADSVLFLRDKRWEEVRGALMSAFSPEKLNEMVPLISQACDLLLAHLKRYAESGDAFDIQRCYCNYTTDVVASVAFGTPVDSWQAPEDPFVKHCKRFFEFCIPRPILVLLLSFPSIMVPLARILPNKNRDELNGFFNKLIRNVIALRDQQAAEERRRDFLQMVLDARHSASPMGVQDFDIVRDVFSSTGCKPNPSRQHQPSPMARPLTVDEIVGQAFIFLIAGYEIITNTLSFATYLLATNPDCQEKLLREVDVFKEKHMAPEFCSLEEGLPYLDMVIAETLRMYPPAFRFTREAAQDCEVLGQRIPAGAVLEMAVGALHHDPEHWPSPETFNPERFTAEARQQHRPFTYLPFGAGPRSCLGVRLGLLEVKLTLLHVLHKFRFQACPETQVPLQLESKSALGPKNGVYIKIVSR
As to the kind of experiment: Thromboxane synthase inhibition, human platelet microsomes. In kind it is biochemical. To be noted: enzyme source H = Human Platelet Microsomes; read-out: IC50. On the procedure:
In said assay procedure, microsomes from guinea pig lung or human platelets are added to an endoperoxide intermediate in prostaglandin biosynthesis and the inhibitor in phosphate buffer solution followed by incubation, extraction and determination of the extent of thromboxane synthase inhibition by TLC with radiochromatographic profile analysis.
as §6
Platelets were obtained from 320 ml of whole blood and resuspended in 5.0 ml of Krebs-Hensleit buffer (CA^+2 free). After three consecutive freeze-thawing cycles, homogenization and centrifugation at 12,000 g for 45 min., the 12,000 supernatant was recentrifuged at 110,000 g for 60 min. The resultant pellet was resuspended in phosphate buffer (0.5 ml, 0.1M, pH 7.5) and stored at -70° until use.
as §1, §2, §3, §4, §5

Assay [5] has as its system thromboxane synthase from human platelets. To be noted: highest potency among the imidazole derivatives tested; read-out: I50; cited from earlier work.
For assay [6], the system named is obese Zucker rats. As to the kind of experiment: Antiobesity activity in vivo in obese Zucker rats. The arrangement: species or system rat. The following applies: 16 to 18 days; for Body Weight Gain: treated minus control. As for the experimental part:
Determination of Antiobesity Activity
Thromboxane synthase inhibitors were evaluated for antiobesity activity in vivo. Body weight, food intake and circulating insulin levels were monitored during periods of drug treatment. Analysis of carcass composition was performed at study termination.
Animals, Diets and Drug Administration
Lean and obese male and female Zucker rats bred at Hoffmann-La Roche Inc. (Nutley, NJ) were kept in wire-bottomed individual cages in light (12 hr dark and light cycles beginning at 6 p.m. and 6 a.m., respectively) and temperature-controlled (22°) rooms. All rats were fed chow diet (Ralston Purina Co., St. Louis, MO) ad libitum until one to three weeks before the start of drug treatment, at which time they were trained to consume a high glucose low fat (1% corn oil) diet which is herein referred to as G-70:1% CO. Following the one to three-week training period on G-70:1% CO, the average daily food intake was calculated, and the rats were weighed and divided into groups of four to seven rats each.
The control animals continued to eat the G-70:1% CO diet ad libitum, and the experimental groups were given G-70:1% CO diet containing drug (also fed ad libitum). The amount of drug added to the diet of each experimental group was based on calculations of food consumed per kg body weight using data collected at the end of the training period. […] The period of drug treatment ranged from 16 to 18 days as noted in the legends to the tables and graph. Food intake and body weight were recorded either daily or twice a week throughout the duration of the study. The amount of drug administered was calculated from the food intake per kg body weight for each experimental group. Body weight data are reported as the difference between the body weight gains of control and drug-treated animals. Food intake and insulin data are reported as percent of control.
^a Average duration of treatment was 16 to 18 days.
^b Body weight gain was computed by taking the difference between the
weight gain of treated and control rats.

Assay [7] has as its system thromboxane synthetase (rabbit platelet microsomes). The following applies: result in words; cited from earlier work.

For the molecule `S=C(n1ccnc1)n1ccnc1` [1,1'-carbonothioylbis-1H--imidazole, 1,1'-carbonothioylbis-1H-imidazole], the IC50 in assay [1] was 10 to 100 µM; in assay [3], 15 µM. Moreover, the “Insulin Secretion Inhibition Index” value in assay [2] (1000 μM) was 5.

For the molecule `c1ccc(C(c2ccccc2)(c2ccccc2)n2ccnc2)cc1` [1-(triphenylmethyl)-1H--imidazole, 1-(triphenylmethyl)-1H-imidazole], the IC50 in assay [1], in assay [3] and in assay [4] was 10 to 100 µM in each case. Further, the “Insulin Secretion Inhibition Index” value in assay [2] (10 μM) was 2.

For the molecule `CC(C)c1ccccc1-n1ccnc1` [1-[2-(1-methylethyl)phenyl]-1H--imidazole], the IC50 in assay [5] is about 0.01 µM; in assay [4], about 1 µM.

Turning to `CC(C)Oc1ccc(-n2ccnc2)cc1` [1-[4-(1-methylethoxy)phenyl]-1H-imidazole], in assay [6] (82 mg/kg in diet, P ≤ 0.05), the “Food Consumption” value was 80 ± 2 % of control. Also, in assay [6] (82 mg/kg in diet, not marked significant), the Insulin is 94 ± 21 % of control. Moreover, in assay [6] (82 mg/kg in diet, P ≤ 0.05), the “Body Weight Gain” value is given as -18 g. In assay [2] (100 μM), the “Insulin Secretion Inhibition Index” value amounted to 4. Besides, the figures for the IC50 in assay [3] and in assay [4] were 10 µM and about 10 µM, respectively.

Take `CCCCCCCCCn1ccnc1` [1-nonyl-1H--imidazole]: the IC50 in assay [5] was about 0.01 µM.

Consider `c1c[nH]cn1` [1H--imidazole, reference compound], for which the IC50 is > 100 µM and < 1000 µM in assay [1]; 600 µM in assay [3]. Further, the “Insulin Secretion Inhibition Index” value is on record as 2 in assay [2] (100 μM) and 3 in assay [2] (1000 μM).

For `c1ccc2c(Cn3ccnc3)c[nH]c2c1` [3-(1H--imidazol-1-ylmethyl)-1H--indole, 3-(1H-imidazol-1-ylmethyl)-1H-indole], the “Food Consumption” value in assay [6] (18 mg/kg in diet, P ≤ 0.05) is 81 ± 1 % of control; in assay [6] (55 mg/kg in diet, P ≤ 0.05), 63 ± 4 % of control. The Insulin in assay [6] (18 mg/kg in diet, P ≤ 0.05) is on record as 72 ± 9 % of control; in assay [6] (55 mg/kg in diet, P ≤ 0.05), 12 ± 2 % of control. Besides, the “Body Weight Gain” value is recorded as -24 g in assay [6] (18 mg/kg in diet, P ≤ 0.05) and -68 g in assay [6] (55 mg/kg in diet, P ≤ 0.05). Further, the “Insulin Secretion Inhibition Index” value in assay [2] (10 μM) turned out to be 1; in assay [2] (50 μM), 13; in assay [2] (100 μM), 32. The IC50 in assay [3] is 1 µM; in assay [4], about 1 µM.

As for `CC(C)c1[nH]c2ccccc2c1C(=O)c1cccnc1` [[2-(1-methylethyl)-1H-indol-3-yl)]-3-pyridinyl-methanone], the “Food Consumption” value in assay [6] (94 mg/kg in diet, not marked significant) is listed as 89 ± 4 % of control. Besides, the “Body Weight Gain” value in assay [6] (94 mg/kg in diet, P ≤ 0.05) was -17 g. In assay [2] (100 μM), the “Insulin Secretion Inhibition Index” value stood at 5. The IC50 in assay [3] was 1 µM; in assay [4], about 1 µM.

With `c1ccncc1` [pyridine], the “enzymatic formation of TXB2 from PGH2” value in assay [7] is given as “inhibition”.

The record behind these values is patent US4731363A, “Thromboxane synthase inhibitors as insulin lowering agents and antiobesity agents” (priority 1986, dated 1988).
